# Columns and labels:
# Format in all cases: cell-based
# [1] = system: MDA-MB468 (TNBC cell line); assay: MTT cell viability assay, MDA-MB468; settings: Homo sapiens, MDA-MB-468, 72 h, read-out: IC50 ± SD, MDA-MB468
# Method: (§1) The following cancer and non-cancer cell lines were used in the initial cytotoxicity screening of the TPH104 compounds: triple negative breast cancer (TNBC): MDA-MB468, MDA-MB 231, and BT-20; non-TNBC: MCF-7 and ZR-75-1; ovarian: Ov2008; prostate: DU145; colon: HCT-116, S1, and LOVO; lung: H460; normal kidney: HEK-293; normal breast: HMEC; and normal colon: CRL-1459. All cells were cultured in Dulbecco's modified Eagle medium (DMEM), supplemented with 10% fetal bovine serum (FBS), and 1% penicillin/streptomycin (P/S). Cells were allowed to grow as adherent monolayers in T25 flasks in a humidified incubator with 5% CO2 at 37° C. for a period of 24 h, unless otherwise specified for certain experiments.
# The MTT assay was used to determine the cytotoxicity of all of the compounds. Briefly, in a 96-well flat-bottom cell culture plate, the cells were seeded at a density between 3-5×10^3 cells/well (180 μl in each well) and incubated for 24 h (a hemocytometer was used for cell counting). The next day, the cells were incubated with different concentrations of the nine compounds (0, 0.1, 0.3, 1, 3, 10, 30, and 100 μM) for 72 h. After 72 h, 20 μl of 5 mg/ml of 3-(4,5-dimethylthiazol-2-yl)-2,5-diphenyltetrazolium bromide (MTT) was added to the plate and incubated with the cells for 3 h at 37° C. In this experiment, the living cells will reduce the soluble MTT dye to non-soluble purple formazan crystals. Following incubation, the media containing MTT removed via suction and 100 μL of 100% dimethyl sulfoxide (DMSO) was added to dissolve the formazan crystals. Subsequently, the plate was shaken for 2 minutes and the absorbance was measured at a wavelength of 570 nm using a SpectraMax iD3 Multi-Mode Microplate Reader (Molecular Devices, Sunnyvale, CA). The IC50 values of each compound were calculated and used to determine the selectivity ratio (IC50 in normal cells/IC50 in cancer cells) of each compound as previously described. Based on the results obtained from these experiments, the compound TPH104, which had the lowest IC50 value, was selected for further experiments.
# [2] = system: other normal cell lines (colon and kidney); assay: MTT cytotoxicity, other normal cell lines
# Method: as §1
# The MTT assay was used to determine the cytotoxicity of all of the compounds. Briefly, in a 96-well flat-bottom cell culture plate, the cells were seeded at a density between 3-5×10^3 cells/well (180 μl in each well) and incubated for 24 h (a hemocytometer was used for cell counting). […] Subsequently, the plate was shaken for 2 minutes and the absorbance was measured at a wavelength of 570 nm using a SpectraMax iD3 Multi-Mode Microplate Reader (Molecular Devices, Sunnyvale, CA). The IC50 values of each compound were calculated and used to determine the selectivity ratio (IC50 in normal cells/IC50 in cancer cells) of each compound as previously described. […]
# [3] = system: MDA-MB468 cells; assay: Nuclear condensation and morphology, MDA-MB468
# Method: To detect DNA fragmentation following apoptotic cell death, the Hoechst 33258 assay was performed. Briefly, TNBC cells were seeded in a 6-well plate at a density of 10,000 cells/well over 18-mm cover slips and incubated for 24 h. Following incubation, TPH104 (1, 2, or 5 μM), or vehicle were added for an additional 12 h. Subsequently, Hoechst 33258 (Sigma Aldrich, USA) was added to the cells at a concentration of 0.5 mg/mL and incubated for 30 minutes at 37° C. The cells were then washed 3× with phosphate buffered saline (PBS). Subsequently, the cover slips were mounted on a microscope glass/slide and allowed to dry for at least 2 h. Stained cells from each cover slip were captured from randomly selected fields under a fluorescent microscope (EVOS-FLC cell imaging system, Thermofisher scientific) to qualitatively determine the proportion of viable and apoptotic cells based on their relative fluorescence and nuclear fragmentation as previously described.
# [4] = system: β-catenin in MDA-MB468; assay: Western blot, β-catenin, MDA-MB468
# Method: The TNBC cells were seeded in a culture flask and incubated for 24 h. The cells were then incubated with different concentrations of the lead compounds and re-incubated for an additional 12 or 24 h. […] The bicinchoninic acid (BCA) was used to determine protein concentration in the cell extracts (G-BIOSCIENCES, St. Louis, MO, USA). […] The membrane was blocked using 5% milk in Tris-buffered Tween 20 saline for 30 minutes. […] A ChemiDoc™ MP System imaging system from Bio-Rad (Hercules, CA, USA) was used for blots reading. Blots were used to obtain the protein bands, followed by quantification of the bands using image J software (NIH, Bethesda, MD, USA). All of the data were expressed as the ratio of β-actin or GAPDH.
# [5] = system: TRAIL, DR5, TRADD, RIP3, TNF-α, TNFR1, FADD, Fas in BT-20 TNBC cells; assay: Western blot, TRAIL and TNF pathway proteins
# Method: The TNBC cells were seeded in a culture flask and incubated for 24 h. The cells were then incubated with different concentrations of the lead compounds and re-incubated for an additional 12 or 24 h. […] The bicinchoninic acid (BCA) was used to determine protein concentration in the cell extracts (G-BIOSCIENCES, St. Louis, MO, USA). […] The membrane was blocked using 5% milk in Tris-buffered Tween 20 saline for 30 minutes. The membrane was then incubated overnight with primary antibodies against Bak, Bax, Bcl-2, caspase9, caspase 3, caspase 7, PARP, cytochrome c, N-cadherin, E-cadherin, c-Myc, dishevelled segment polarity protein 3 (DVL3), dishevelled segment polarity protein 2 (DVL2), Vimentin, mitogen-activated protein kinase kinase (MAPKK also known as MEK1/2), β-catenin, low-density lipoprotein receptor-related protein 6 (LRP6), receptor-interacting protein kinase (RIP), phosphorylated RIP (p-RIP), mixed lineage kinase domain like pseudokinase(MLKL), Caspase 8, light chain 3 (LC3), lysosomal-associated membrane protein 1 (LAMP1), unc-51 like autophagy activating kinase 1 (ULK1), ras associated protein 7 (Rab7), ras associated protein 5 (Rab5), Beclin 1, mechanistic target of rapamycin (mTOR), tumor necrosis factor alpha (TNF-α), tumor necrosis factor receptor 1 (TNFR1), tumor necrosis factor receptor 2 (TNFR2), Fas-associated protein with death domain (FADD), Fas ligand (Fas), TNF-related apoptosis-inducing ligand (TRAIL), death receptor 5 (DR5), Tumor necrosis factor receptor type 1-associated DEATH domain (TRADD), receptor-interacting protein kinase 3 (RIP3), β-actin or GAPDH in 1:1000 dilution in 5% milk or 5% BSA at 4° C. […] A ChemiDoc™ MP System imaging system from Bio-Rad (Hercules, CA, USA) was used for blots reading. Blots were used to obtain the protein bands, followed by quantification of the bands using image J software (NIH, Bethesda, MD, USA). All of the data were expressed as the ratio of β-actin or GAPDH.
# [6] = biological target: T1, BCRP (ABCG2), MCF-7 M100 breast cancer cells (Homo sapiens, UniProt Q9UNQ0); assay: Hoechst 33342 assay for BCRP modulation; settings: concentration dependent
# T1 construct: endogenous in cells; host or cells: MCF-7 M100 breast cancer cells
# T1 sequence (Q9UNQ0 whole entry): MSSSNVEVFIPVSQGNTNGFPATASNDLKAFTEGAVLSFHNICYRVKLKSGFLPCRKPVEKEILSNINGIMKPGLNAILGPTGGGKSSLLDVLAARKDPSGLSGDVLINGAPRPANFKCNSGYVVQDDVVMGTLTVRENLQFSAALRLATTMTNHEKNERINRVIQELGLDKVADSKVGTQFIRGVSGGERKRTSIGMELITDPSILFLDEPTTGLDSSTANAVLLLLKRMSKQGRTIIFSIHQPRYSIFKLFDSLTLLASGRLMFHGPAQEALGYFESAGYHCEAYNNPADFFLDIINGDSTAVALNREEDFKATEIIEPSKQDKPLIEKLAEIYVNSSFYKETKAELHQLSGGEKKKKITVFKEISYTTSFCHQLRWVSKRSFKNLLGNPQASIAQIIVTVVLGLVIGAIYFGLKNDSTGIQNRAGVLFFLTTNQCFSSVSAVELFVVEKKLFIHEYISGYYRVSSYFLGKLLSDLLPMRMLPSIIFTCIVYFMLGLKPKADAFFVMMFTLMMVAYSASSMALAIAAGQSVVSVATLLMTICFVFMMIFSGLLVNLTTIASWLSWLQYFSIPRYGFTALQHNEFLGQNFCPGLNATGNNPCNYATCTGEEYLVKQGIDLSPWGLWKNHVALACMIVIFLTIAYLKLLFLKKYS
# Method: Ability of BCRP to efflux nuclear stain Hoechst 33342 was used to identify the molecules which interfere with BCRP transporter activity. About 14000 cells of MCF-7 M100 breast cancer cells were seeded in each well in 96 well plates and allowed to grow until confluency for 4-5 days. Then media was replaced with phenol red free RPMI media and cells were treated with indicated concentrations of TPH104s and 5 μg/mL of Hoechst 33342. Fluorescence measured after 60 minutes with excitation at 361/20 nm and at emission 497/20 nm using the BioTek Cytation 5 imaging multi-mode reader (Bio-Tek, Winooski, VT). DMSO (0.5% v/v) was used as the vehicle, and 0.5 μM of BCRP inhibitor, Ko143 was used as a positive control and 15 μM of P-gp modulator, verapamil was used as negative control.
structure (smiles),measurement,setting,value
COc1ccc(O)c(/C=N/Nc2ncnc3scc(-c4ccc(C)cc4)c23)c1 [TPH104],IC50,[1],250 nM
same,selectivity fold in comparison to other normal cell lines (colon and kidney),[2],up to 30 fold
same,nuclear condensation or cellular shrinkage,[3],did not produce
same,expression of β-catenin,[4],significantly decreased
same,TNF-α,"[5]; 0.5, 1, 2, and 5 μM",no significant change
same,"expression of TNFR1, FADD, and Fas","[5]; 0.5, 1, 2, and 5 μM",significantly inhibited
same,"TRAIL, its receptor (DRS), RIP3, and TRADD","[5]; 0.5, 1, 2, or 5 μM",significant increase
same,efflux function of ABCG2,[6],blocking the efflux function

# Reference: patent US12390467B2, “Necroptosis inducers or autophagy inhibitors or a combination thereof” (The University of Toledo, priority 2018, dated 2025)
